Consider four molecules from US20260041796A1, “REGULATION OF IMMUNE RESPONSES THROUGH SELECTIVE NEURAL ACTIVATION” (The Trustees of Columbia University in the City of New York, priority 2021, published 2026).

Test [1] deals with vagal sensory neurons. Kind of test: In-vivo calcium imaging (GCaMP6s) of nodose ganglion after intraperitoneal cytokine. Particulars: intraperitoneal injection; no response to saline or glucose. The method, then:
FIG. 7 illustrates a subset of neurons in the nodose ganglion that respond to pro-inflammatory cytokines. Calcium responses in vagal sensory neurons expressing the genetically encoded fluorescent calcium indicator GCaMP6s were imaged while administering cytokines intraperitoneally. The platform was modified to image the response of vagal sensory neurons to cytokines. The cytokine was administered via intraperitoneal injection and calcium activity in the nodose ganglion was monitored. Heat maps depicting z-score-normalized fluorescence traces from vagal neurons identified as responders of proinflammatory cytokine (TNFa). Neural activity was detected using an in-vivo calcium imaging platform with genetically encoded calcium indicator GCaMP6 expressed in all vagal sensory neurons. Each trial represents the activity of a single cell. […]
FIG. 8 illustrates a subset of neurons in the nodose ganglion that respond to anti-inflammatory cytokines. Heat maps depicting z-score-normalized fluorescence traces from vagal neurons identified as responders of anti-inflammatory cytokines (IL-4). […] Neural activity was detected using an in-vivo calcium imaging platform with genetically encoded calcium indicator GCaMP6 expressed in all vagal sensory neurons. […] The cytokine was administered via intraperitoneal injection and calcium activity in the nodose ganglion was monitored. […]

The subject of test [2] is caudal nucleus of the solitary tract (cNST). The test is described as follows: Fos induction in the brain after peripheral LPS immune challenge. Type of test: in vivo. The following applies: LPS stimulus vs saline control; c-fos as proxy for neural activity. An excerpt: Peripheral immune challenge evokes brain activities. LPS was used to induce an innate immune response and the brain was examined for the induction of c-fos as a proxy for neural activity. […] When the body experiences bacterial infections, the bacterial membrane component lipopolysaccharide (LPS) triggers strong innate immune response. LPS (right) but not saline control (left) strongly activates cNST (circled area). For each condition, a representative image from N>=3 animals is shown. Scale bar: 100 μm. Strong bilateral c-fos labeling was detected in the caudal nucleus of the solitary tract (cNST) in the brainstem.
A brainstem circuit that functions as a conduit to convey peripheral immune information to the brain was identified. […] Using an activity marker (cFos induction), it was determined that a selective population of neurons in the brain are activated in response to administration of a peripheral immune insult.
It was shown that neurons in the caudal nucleus of the solitary tract (cNST) in the brainstem are activated by peripheral (intraperitoneal) administration of LPS (lipopolysaccharide), a potent inducer of inflammatory responses (FIG. 5). […] Next, to uncover the role of these cNST neurons in immune responses, a chemogenetic silencer was introduced by genetic Trapping, and the effect of silencing these cNST neurons in the emergence of LPS-induced inflammatory responses was evaluated.

Test [3] has as its system LPS-TRAPed population in the cNST. The test is described as follows: Blood cytokine levels after LPS with chemogenetic (DREADD) activation of LPS-TRAPed cNST neurons. Type of test: in vivo. The method, then:
FIG. 12 illustrates the effect of neuronal stimulation in the caudal nucleus of the solitary tract on the immune response. […] Neuronal populations were chemogenetically activated with designer receptor exclusively activated by a designer drug (DREADD) while the animal is given LPS and cytokine levels in the blood were measured. In the control animals, LPS induced the strong release of pro-inflammatory TNFa, reaching 200 pg/ml in the peripheral blood. When this brainstem neuronal population was activated with DREADD, there was a remarkable suppression of pro-inflammatory cytokine release, resulting in 90% reduction in the TNFa in the blood. The same results were obtained for another proinflammatory cytokine, IL-6. In addition to suppressing the release of pro-inflammatory cytokines, activation of this neuronal population markedly increase the release of the anti-inflammatory cytokine, IL-10. Thus, this brain circuit triggers a strong anti-inflammatory response while suppressing pro-inflammatory cytokines. Note that under normal conditions (control) the immune insult triggers a very large induction of pro-inflammatory cytokines (TNFa; left panels), and this induction is suppressed by activation of the cNST neurons (compare bars). […]
FIG. 19 illustrates that activating cNST-responsive neurons dramatically suppresses inflammatory responses. […] These neurons were artificially activated after LPS using a synthetic drug, CNO, and then cytokine levels in the circulation were analyzed in response to LPS.
It was shown that neurons in the caudal nucleus of the solitary tract (cNST) in the brainstem are activated by peripheral (intraperitoneal) administration of LPS (lipopolysaccharide), a potent inducer of inflammatory responses (FIG. 5). […] Next, to uncover the role of these cNST neurons in immune responses, a chemogenetic silencer was introduced by genetic Trapping, and the effect of silencing these cNST neurons in the emergence of LPS-induced inflammatory responses was evaluated. […]

In test [4] the test system is caudal nucleus of the solitary tract (cNST). Kind of test: TRAP activity-based labelling of LPS-responsive neurons. Format: in vivo. Particulars: LPS-treated vs saline treated animals. The source says:
The activity based labelling strategy, TRAP, was used to identify and access neuronal populations activated during LPS induced inflammation. Neurons TRAPed by LPS (right) but not saline control (left) are seen in the cNST (circled area). For each condition, a representative image from N>=3 animals is shown. Scale bar: 500 μm.
It was shown that neurons in the caudal nucleus of the solitary tract (cNST) in the brainstem are activated by peripheral (intraperitoneal) administration of LPS (lipopolysaccharide), a potent inducer of inflammatory responses (FIG. 5). […] In other words, the brain monitors and modulates immune responses in the body. […] Next, to uncover the role of these cNST neurons in immune responses, a chemogenetic silencer was introduced by genetic Trapping, and the effect of silencing these cNST neurons in the emergence of LPS-induced inflammatory responses was evaluated.

Setting [5] is: TRAPed cNST neurons activated after LPS, cytokine levels in the circulation.

Regarding TNFa, the “calcium activity in a subset of vagal sensory neurons” value in test [1] is “robust activity”.
For lipopolysaccharide [LPS], the “Fos induction in the cNST” value in test [2] is given as “Strong Fos induction”. Also, the “TNFa in the peripheral blood” value in test [3] (control animals given LPS, no neuronal activation) was determined as 200 pg/mL. Also, the “labelling of cNST with fluorescence reporter (tdTomato)” value in test [4] is given as “Strong labelling”.
`C[N+]1([O-])CCN(C2=Nc3cc(Cl)ccc3Nc3ccccc32)CC1` [CNO, clozapine N-oxide]: in test [3] (setting [5]), the “levels of anti-inflammatory cytokines” value is recorded as “very large increase” and the “release of pro-inflammatory cytokines” value was “dramatic suppression”.

B1: IL-4: anti-inflammatory cytokine administered intraperitoneally (protein, UniProt P05112 25-153, looked up)
Interleukin-4: HKCDITLQEIIKTLNSLTEQKTLCTELTVTDIFAASKNTTEKETFCRAATVLRQFYSHHEKDTRCLGATAQQFHRHKQLIRFLKRLDRNLWGLAGLNSCPVKEANQSTLENFLERLKTIMREKYSKCSS
In the case of B1, the “calcium activity in a subset of vagal sensory neurons” value in test [1] is reported as “robust activity”.
